Experiments:
Type in all cases: cell-based
PAR2-homodimers = molecular target: T1, PAR2-homodimers (Homo sapiens, UniProt P55085, Q172R/R173Q/R36A); test: Migration of HEK cells co-expressing PAR2-R36A and PAR2-RQ toward trypsin; conditions: 30 nM trypsin; 18 h
T1 construct: expressed in transfected cells; host or cells: HEK
Procedure: (§1) (A) PAR2 antagonist pepducins P2pal-18S and P2pal-14GQ inhibit calcium flux induced by PAR2 (SLIGRL) (SEQ ID NO:4) but not PAR1 (TFLLRN) (SEQ ID NO:2) agonists. SW620 cells were stably transfected with PAR1 and pretreated for 1 min with various concentrations of P2pal-18S or P2pal-14GQ and then stimulated with 30 μM PAR agonist. […] Cells were stimulated with 1 μM TFLLRN (SEQ ID NO:2), 1 μM SLIGRL (SEQ ID NO:4) or 100 μM AYPGKF (SEQ ID NO:5) and [^3H]-InsP formation measured over 30 min. (C) SW620 cells were treated with the indicated concentrations of P2pal-18S or P2pal-14GQ in the upper well of an 8-μm pore Boyden chamber and allowed to migrate for 18 h towards 10 μM of the PAR2 specific agonist SLIGRL in the lower chamber. The migration to RPMI/0.1% FBS represents random migration. (D) Migration of HEK cells transiently transfected with PAR2 (wild-type, WT), or PAR2-R36A/PAR2-RQ toward chemotactic gradients of 30 nM trypsin in the absence or presence of the indicated concentration of P2pal-18S for 18 h in a transwell apparatus ([…]). Data (n=2-4) are mean±SEM. *, P<0.05 and **, P<0.005.
To provide functional evidence that one PAR2 receptor can interact with an adjacent PAR2 receptor, a signaling dead PAR2-RQ mutant was constructed by transposing residues at Q172 and R173 located in the critical ‘DRY’ TM3 motif (FIG. 1A, the second set of sequence labeled as “QR->RQ”). […]

PAR2 [1] = molecular target: T2, PAR2 (Homo sapiens, UniProt P55085); test: Calcium flux screen for PAR2 pepducin agonist and antagonist activity in SW620 cells; design: SW620 colon adenocarcinoma cells that endogenously express PAR2; endogenous in cells; host or cells: SW620 (in A7 the SW620 cells were additionally stably transfected with PAR1); conditions: 3-4 μM and 14-15 μM pepducin
T2 sequence (P55085 26-397): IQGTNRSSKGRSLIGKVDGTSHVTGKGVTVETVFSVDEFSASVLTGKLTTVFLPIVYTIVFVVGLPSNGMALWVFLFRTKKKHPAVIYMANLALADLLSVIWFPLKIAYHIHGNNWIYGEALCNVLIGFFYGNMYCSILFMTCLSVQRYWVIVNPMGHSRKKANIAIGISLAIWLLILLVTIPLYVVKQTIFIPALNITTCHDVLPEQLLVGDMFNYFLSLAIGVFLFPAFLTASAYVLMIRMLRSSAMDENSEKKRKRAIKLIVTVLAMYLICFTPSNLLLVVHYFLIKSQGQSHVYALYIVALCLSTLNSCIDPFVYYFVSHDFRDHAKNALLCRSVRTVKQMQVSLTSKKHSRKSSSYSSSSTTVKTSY
Procedure: (A) Agonist and antagonist activity of third intracellular (i3) loop PAR2 pepducins (structure shown on top) using calcium flux assays with SW620 colon adenocarcinoma cells that endogenously express PAR2. Each column of three calcium flux traces corresponds to the i3 pepducin sequence shown above. The top row is the agonist activity of 3-4 μM pepducin and the middle row is the agonist activity of 14-15 μM pepducin. […] Final concentration of DMSO vehicle was 0.2%. […] (C) Agonist activity for each pepducin from (A) is reported as initial velocity of calcium flux at 4 μM pepducin (†), or at 14-15 μM pepducin (‡).

PAR2 [2] = molecular target: PAR2 (Mus musculus, UniProt P55086); test: Mouse neutrophil chemotaxis to trypsin; conditions: 30 nM trypsin
Chain of PAR2 (Mus musculus, UniProt P55086) (P55086 26-399): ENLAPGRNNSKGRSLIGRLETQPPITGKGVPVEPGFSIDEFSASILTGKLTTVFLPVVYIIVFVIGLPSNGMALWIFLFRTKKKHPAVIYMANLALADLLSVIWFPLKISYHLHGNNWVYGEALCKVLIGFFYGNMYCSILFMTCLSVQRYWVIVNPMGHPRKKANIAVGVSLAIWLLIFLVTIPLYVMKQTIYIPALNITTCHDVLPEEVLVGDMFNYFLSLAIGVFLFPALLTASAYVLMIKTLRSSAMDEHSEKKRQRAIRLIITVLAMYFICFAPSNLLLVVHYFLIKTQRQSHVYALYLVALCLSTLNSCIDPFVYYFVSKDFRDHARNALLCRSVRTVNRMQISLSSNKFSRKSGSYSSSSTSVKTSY
Procedure: (§2) (A) Human neutrophils (n=4 normal volunteers) were analyzed for surface expression of human PAR1, PAR2, and PAR4 by flow cytometry with PAR-specific antibodies. […] Chemotaxis index is the ratio of directed versus random migration over 30 min through a 5-μm pore filter.
The ability of some pepducin embodiments of the invention to antagonize PAR2-dependent activity of human neutrophils was tested. Neutrophils were isolated from the peripheral blood of healthy human volunteers and found to express high levels of surface PAR2 and PAR4 and lower apparent levels of PAR1 by flow cytometry (FIG. 3A). […] As human PAR2 shares 85% identity with mouse PAR2 and the mouse i3 loop retains all of the critical pharmacophores identified in the human PAR2 i3 loop, cross-species inhibition with mouse cells was tested.

PAR4 = molecular target: T3, PAR4 (Homo sapiens, UniProt Q96RI0); test: [3H]-InsP formation in COS7 cells transfected with PAR4; design: expressed in transfected cells; host or cells: COS7; conditions: 100 μM AYPGKF, 30 min
T3 sequence (Q96RI0 18-385): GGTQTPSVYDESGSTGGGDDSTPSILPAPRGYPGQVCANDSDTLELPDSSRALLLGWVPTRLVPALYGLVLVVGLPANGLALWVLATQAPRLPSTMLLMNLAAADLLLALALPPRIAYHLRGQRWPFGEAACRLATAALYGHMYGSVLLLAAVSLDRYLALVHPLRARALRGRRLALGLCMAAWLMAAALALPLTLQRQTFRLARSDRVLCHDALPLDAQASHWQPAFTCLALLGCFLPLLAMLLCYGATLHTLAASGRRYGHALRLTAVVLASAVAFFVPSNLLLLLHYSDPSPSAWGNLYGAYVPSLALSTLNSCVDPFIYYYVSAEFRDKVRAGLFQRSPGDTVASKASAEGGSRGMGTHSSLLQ
Procedure: as §1

PAR2 [3] = molecular target: T2, PAR2; test: Ligand-dependent endocytosis of PAR2
Source text: Additionally, we tested whether P2pal-18S inhibited proteolytic cleavage of PAR2 or endocytosis (DeFea K A, et al. (2000) J Cell Biol 148: 1267-81; Roosterman D, et al. (2003) Am J Physiol Cell Physiol 284: C1319-29; Stalheim L, et al. (2005) Mol Pharmacol 67: 78-87). […] Therefore, the P2pal-18S i3 loop pepducin can inhibit PAR2-dependent calcium signaling, PLC-b inositol phosphate formation, and cell migration, but not proteolytic cleavage or endocytosis.

CXCR1/CXCR2 = test: Human neutrophil chemotaxis to IL-8; conditions: 100 nM IL-8
Procedure: as §2
P2pal-18S had no effect on PAR1-dependent platelet aggregation (FIG. 5A). Neither P2pal-18S nor P2pal-14GQ caused membrane disruption or apoptosis as assessed by propidium iodide uptake in SW620 cells with up to 30 μM concentrations of pepducin (FIG. 5B).

T1 sequence (P55085 26-397 R36A): as the sequence (P55085 26-397) above, with R11A counted along it
T1 sequence (P55085 37-397 Q172R/R173Q): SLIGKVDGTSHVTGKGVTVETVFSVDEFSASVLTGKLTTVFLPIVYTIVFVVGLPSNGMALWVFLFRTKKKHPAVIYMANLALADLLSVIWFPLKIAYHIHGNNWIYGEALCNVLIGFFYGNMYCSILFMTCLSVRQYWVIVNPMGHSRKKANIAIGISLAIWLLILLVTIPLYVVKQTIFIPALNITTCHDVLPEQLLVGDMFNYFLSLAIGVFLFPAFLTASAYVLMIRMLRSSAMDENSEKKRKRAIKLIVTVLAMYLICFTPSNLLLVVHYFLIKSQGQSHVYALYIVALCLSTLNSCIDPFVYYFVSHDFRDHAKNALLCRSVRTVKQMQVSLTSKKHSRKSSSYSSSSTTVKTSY

Suppression of chemotactic migration (transactivation of PAR2-homodimers) (PAR2-homodimers): complete suppression
Inhibition of mouse neutrophil migration (PAR2 [2]): completely inhibited
Inhibition of InsP signaling from PAR4 (PAR4): do not inhibit
Inhibition of ligand-dependent endocytosis of PAR2 (PAR2 [3]): did not inhibit
SMILES: CCCCCCCCCCCCCCCC(=O)N[C@@H](CCCNC(=N)N)C(=O)N[C@@H](CO)C(=O)N[C@@H](CO)C(=O)N[C@@H](C)C(=O)N[C@@H](CCSC)C(=O)N[C@@H](CC(=O)O)C(=O)N[C@@H](CCC(=O)O)C(=O)N[C@@H](CC(N)=O)C(=O)N[C@@H](CO)C(=O)N[C@@H](CCC(=O)O)C(=O)N[C@@H](CCCCN)C(=O)N[C@@H](CCCCN)C(=O)N[C@@H](CCCNC(=N)N)C(=O)N[C@@H](CCCCN)C(=O)N[C@@H](CO)C(=O)N[C@@H](C)C(=O)N[C@H](C(=O)N[C@@H](CCCCN)C(N)=O)[C@@H](C)CC [P2pal-18S]
Agonist activity (calcium flux) (PAR2 [1]): no detectable or otherwise significant agonist activity
Antagonist activity, neutrophil chemotaxis, CXCR1/2 IL-8 receptors (CXCR1/CXCR2): no antagonist activity

From patent US10913781B2, “Pepducin design and use” (Tufts Medical Center, Inc., priority 2011, dated 2021)
